Our source for the IC50 values is ChEMBL document CHEMBL1132867, “A rationally designed anticancer drug targeting a unique binding cavity of tubulin” (Bioorg Med Chem Lett, 2000).

As a reminder, the pIC50 is −log10 of the IC50, conventionally taken in molar units. A high value points to a low IC50.

One test relates to MDA-MB-231. In words: Anti-proliferative activity of compound against human breast cancer MDA-MB-231 by standard MTT assay. It counts as functional, cell-based. (Tetrazolium dyes change colour on reduction, which living cells bring about.)
The next test concerns PC-3. The test can be described thus: Anti-proliferative activity of compound against human prostate cancer PC-3 by standard MTT assay. It counts as functional, cell-based. As to conditions: PC-3, Prostate gland.
Another test relates to NALM-6. The test can be described thus: Anti-proliferative activity of compound against human leukemia NALM-6 by standard MTT assay. It counts as functional, cell-based.
The next test relates to SQ20B. In words: Anti-proliferative activity of compound against human head/neck cancer SQ20B by standard MTT assay. It counts as functional, cell-based.
Another test concerns U-87 MG. In words: Anti-proliferative activity of compound against human glioblastoma tumor cell line U87 by standard MTT assay. It counts as functional, cell-based, U-87MG ATCC.

Each structure is given as a SMILES string. pIC50: −log10 of the molar value.

Regarding `C[C@@H](O)[C@H]1CC[C@H](CO)O1` [WHI-260], the negative-log IC50 (pIC50) in the test on MDA-MB-231, with PC-3, in the test with NALM-6, in the test with SQ20B and in the test on U-87 MG was less than 3.60 in each case.

On to `O=S(=O)(CC[C@@H](O)[C@H]1CC[C@H](COCc2ccccc2)O1)c1ccccc1` [WHI-262], for which the negative-log IC50 (pIC50) in the test on MDA-MB-231, in the test with PC-3, in the test with NALM-6, in the test on SQ20B and with U-87 MG was less than 3.60 each time.

On to `OC[C@H]1CC[C@H]([C@@H](O)CO)O1` [WHI-259], for which the negative-log IC50 (pIC50) in the test on MDA-MB-231, in the test with PC-3, with NALM-6, in the test on SQ20B and in the test with U-87 MG was less than 3.60 in each case.

With `CCCCCCCCCCCC[C@@H](O)[C@H]1CC[C@H](CO)O1` [WHI-261], the pIC50 is 5.15 in the test on MDA-MB-231; 3.77 in the test with PC-3; 4.31 with NALM-6; 3.85 with SQ20B; 3.97 in the test on U-87 MG.
